We go through 13 compounds from PubChem BioAssay AID2060895 (Molecular Pharmacology Branch, DTP, NCI, 2025).

The term viability, T/C denotes the ratio of treated to control. One may read the IC50 as the concentration at which inhibition is half-maximal.

Several values for one entry are separate records, joined by “and”; a condition that tells them apart may be missing. Equal values may be shown once. A value given as a limit tells only on which side of the number the result lay.

In the test the test system is PDC 899932-113-R3-J6 complex spheroid viability. Kind of test: Anticancer human tumor 899932-113-R3-J6-PDC patient-derived melanoma cell line growth inhibition [RAS]. The conditions noted are these: for viability, T/C: stronger effect = lower value. An excerpt: RAS pathway inhibitors in Combinations in Complex Spheroids
A high-throughput screen of multi-cell type tumor spheroids was designed to identify active combinations of RAS pathway inhibitors and targeted small molecules. Complex spheroids include a stromal component modeled by human endothelial cells (HUVEC) and fibroblasts modeled by human mesenchymal stem cells (MSCs). The concentration ranges selected for each drug and investigational agent were based upon clinically achievable concentrations if the clinical Cmax of the agent was known.
Compounds. The drugs and investigational agents: abemaciclib (NSC768073), cobimetinib (NSC768068), divarasib (GDC6063, NSC841802), docetaxel (NSC628503), GDC-1971 (RLY-1971, NSC841576), gemcitabine (NSC613327), inavolisib (NSC800729), ipatasertib (NSC767898), KB-0742 (NSC834161), MRTX-1133 (NSC836407), osimertinib (NSC779217), RMC-4630 (NSC839698), RMC-6236 (NSC851965), RMC-6291 (NSC852671), Ro-3306 (NSC812927), sapanisertib (NSC764658), SN-38 (NSC673596), staurosporine (NSC755774), SY5609 (NSC837396), and tovorafenib (DAY101, NSC766906), were obtained from the National Cancer Institute (NCI) Developmental Therapeutics Program Chemical Repository. The FDA-approved anticancer drug set is available from the NCI Developmental Therapeutics Program. […] The stock solutions were prepared in dimethyl sulfoxide (DMSO, Sigma-Aldrich, St. Louis, MO, cat. D2650) at 800-fold the tested concentration and stored at -70 degrees C prior to their use. All drugs and investigational agents were tested over a range starting from a high concentration at or near the clinical Cmax and decreasing in half-log increments. If the clinical Cmax for an agent had not been determined, the highest concentration tested was 10 microM.
Cell Culture. All cells were maintained in an incubator at 37 degrees C and 5% CO2 with 95% humidity. The PDC lines were cultured according to standard operating procedures established by the NCI PDMR. All PDCs were thawed and cultured in Matrigel-coated flasks prepared with a working solution of 1X Ham's F-12 nutrient mix, without supplementation (Invitrogen, Waltham, MA, cat. 11765054), 100 U/mL penicillin-streptomycin (Invitrogen, cat. 15140122), and 2.5% Matrigel (Corning Inc., Corning, NY, cat. 354248) for the first three passages. The 362531-283-R-J2-PDC and 782815-120-R-J1-PDC lines were cultured in 6C/Colon 1B media, which includes advanced DMEM/F-12 (Thermo Fisher Scientific, cat. 12634028), 10 mM HEPES (Thermo Fisher Scientific, cat. 15630080), 1X GlutaMAX supplement (Thermo Fisher Scientific, cat. 35050061), 0.1 mg/mL primocin (InvivoGen, San Diego, CA, cat. ant-pm-2), 10% defined fetal bovine serum, heat inactivated (HyClone Laboratories Inc., Logan, UT, cat. SH30070.03HI), 50% L-WRN conditioned media (ATCC, cat. CRL-3276), 1.25 mM N-Acetyl-L-cysteine (Sigma-Aldrich, cat. A9165), 10 mM nicotinamide (Sigma-Aldrich, cat. N0636), 1X B-27 supplement (Thermo Fisher Scientific, cat. 17504044), 1X N-2 supplement (Thermo Fisher Scientific, cat. 17502048), 50 ng/mL human EGF (Thermo Fisher Scientific, cat. PHG0311), and 10 microM Y-27632 dihydrochloride (Tocris Bioscience, cat. 1254). The K12877-001-R-J1-PDC line was cultured in 6I media, which includes all 6C/Colon 1B media plus 10 ng/mL human FGF-10 (PeproTech, cat. 100-26), 1 ng/mL human FGF-2 (PeproTech, cat. 100-18B), 1 µM prostaglandin E2 (Tocris Bioscience, cat. 2296), […] hydrocortisone (Sigma-Aldrich, cat. H4001), and […] bovine insulin (Sigma-Aldrich, cat. I6634). The K86415-001-R-J1-PDC line was cultured in 6D media, which includes all 6C/Colon 1B media components minus the L-WRN conditioned media. The 485176-168-R4-J1-PDC was cultured in PANC media, which includes all 6C/Colon 1B media plus 100 ng/mL human FGF-10 (PeproTech, cat. 100-26), 500 nM SB-431542 (Selleckchem, cat. S1067), and 10 nM gastrin (Tocris Bioscience, cat. 3006). […]

[1] abbreviates: compound alone, run of 09/09/2024.
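Wherever viability, T/C is given: spheroids exposed to agents for seven days before readout; 100% = DMSO vehicle control wells.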

As for `C#Cc1c(F)ccc2cc(O)cc(-c3ncc4c(N5CC6CCC(C5)N6)nc(OCC56CCCN5CC(F)C6)nc4c3F)c12` (stereo not drawn), the viability, T/C is, setting by setting: (compound 0.0316 µM) 108% [middle of 8 runs]; (compound 0.1 µM) 109% [middle of 8 runs]; (compound 0.316 µM) 107% [middle of 8 runs]; (compound 1 µM) 112% [middle of 8 runs]; (compound 3.16 µM) 111% [middle of 8 runs]; (compound 10 µM) 110% [middle of 8 runs]. Besides, the concentration for half-maximal inhibition (IC50) under setting [1] was more than 10000 nM.
Take `C=CC(=O)N1CCN(c2nc(OCC3CCCN3C)nc3c(F)c(-c4nc(N)cc(C)c4C(F)(F)F)c(Cl)cc23)C(C)C1` (stereo not drawn): the viability, T/C (compound 0.00316 µM) was 109% [middle of 12 runs]; the viability, T/C (compound 0.01 µM) was 108% [middle of 12 runs]; the viability, T/C (compound 0.0316 µM) is 108% [middle of 12 runs]; the viability, T/C (compound 0.1 µM) was 107% [middle of 12 runs]; the viability, T/C (compound 0.316 µM) is 105% [middle of 12 runs]; the viability, T/C (compound 1 µM) was 103% [middle of 12 runs]. Further, the half-maximal inhibitory concentration (IC50) is more than 1000 nM under setting [1] and more than 1000 nM (curve of compound).
`C=CC(=O)Nc1cc(Nc2nccc(-c3cn(C)c4ccccc34)n2)c(OC)cc1N(C)CCN(C)C`: the viability, T/C is, setting by setting: (compound 0.00316 µM) 109% [middle of 4 runs]; (compound 0.01 µM) 98.4% [middle of 4 runs]; (compound 0.0316 µM) 101% [middle of 4 runs]; (compound 0.1 µM) 104% and 102% (2×) and 101%; (compound 0.316 µM) 106% [middle of 4 runs]; (compound 1 µM) 100% [middle of 4 runs]. Besides, the half-maximal inhibitory concentration (IC50) (curve of compound) was more than 1000 nM.
As to `CC(C)NCC(C(=O)N1CCN(c2ncnc3c2C(C)CC3O)CC1)c1ccc(Cl)cc1` (stereo not drawn), the viability, T/C was 110% [middle of 4 runs] (compound 0.0316 µM); 99.1% [middle of 4 runs] (compound 0.1 µM); 97.7% [middle of 4 runs] (compound 0.316 µM); 84.7% [middle of 4 runs] (compound 1 µM); 62.5% [middle of 4 runs] (compound 3.16 µM); 39.9% [middle of 4 runs] (compound 10 µM). For the same compound, under “curve of compound”, the 50% inhibitory concentration (IC50) is 5.72 µM [middle of 4 runs].
Consider `CC(C)n1nc(-c2ccc3oc(N)nc3c2)c2c(N)ncnc21`, for which the viability, T/C by setting is: (compound 0.000316 µM) 107% [middle of 4 runs]; (compound 0.001 µM) 102% [middle of 4 runs]; (compound 0.00316 µM) 116% [middle of 4 runs]; (compound 0.0316 µM) 71.8% [middle of 4 runs]. For the same compound, the half-maximal inhibitory concentration (IC50) (curve of compound) was > 100 nM and 76 nM and 69.3 nM.
On to `CC(Nc1ccc2c(c1)OCCn1cc(N3C(=O)OCC3C(F)F)nc1-2)C(N)=O` (stereo not drawn), for which the viability, T/C by setting is: (compound 0.0316 µM) 104% [middle of 4 runs]; (compound 0.1 µM) 71.2% [middle of 4 runs]; (compound 0.316 µM) 63.9% [middle of 4 runs]; (compound 1 µM) 58.4% [middle of 4 runs]; (compound 3.16 µM) 46.1% (2×) and 45.7% and 46%; (compound 10 µM) 35.1% [middle of 4 runs]. In addition, the IC50 (curve of compound) was 1.74 µM [middle of 4 runs].
Regarding `CC1(C)CCC(Nc2ncc(C(F)(F)F)c(-c3c[nH]c4c(P(C)(C)=O)c(C#N)ccc34)n2)CN1` (stereo not drawn), the viability, T/C was 98.3% [middle of 4 runs] (compound 0.000949 µM); 75.5% [middle of 4 runs] (compound 0.003 µM); 53.9% [middle of 4 runs] (compound 0.00949 µM); 44.4% [middle of 4 runs] (compound 0.03 µM); 18.4% [middle of 4 runs] (compound 0.0949 µM); 12.9% [middle of 4 runs] (compound 0.3 µM). The IC50 (curve of compound) is 15 nM [middle of 4 runs].
Take `CCN1CCN(Cc2ccc(Nc3ncc(F)c(-c4cc(F)c5nc(C)n(C(C)C)c5c4)n3)nc2)CC1`: the viability, T/C runs as follows: (compound 0.00316 µM) 104% [middle of 4 runs]; (compound 0.01 µM) 97.6% [middle of 4 runs]; (compound 0.0316 µM) 97% [middle of 4 runs]; (compound 0.1 µM) 80.7% [middle of 4 runs]; (compound 0.316 µM) 71% [middle of 4 runs]; (compound 1 µM) 30.1% [middle of 4 runs]. Further, the IC50 (curve of compound) is 583 nM [middle of 4 runs].
Take `CCc1c2c(nc3ccc(O)cc13)-c1cc3c(c(=O)n1C2)COC(=O)[C@]3(O)CC`: the viability, T/C was 94.3% [middle of 4 runs] (compound 0.000949 µM); 69.3% [middle of 4 runs] (compound 0.003 µM); 58.9% [middle of 4 runs] (compound 0.00949 µM); 48.3% [middle of 4 runs] (compound 0.03 µM); 42.1% [middle of 4 runs] (compound 0.0949 µM); 32.8% [middle of 4 runs] (compound 0.3 µM).
For the compound `CCn1c(-c2cc(N3CCN(C)CC3)cnc2C(C)OC)c2c3cc(ccc31)-c1csc(n1)CC(NC(=O)C1CC1C)C(=O)N1CCCC(N1)C(=O)OCC(C)(C)C2` (stereo not drawn), the viability, T/C (compound 0.000949 µM) is 76% [middle of 8 runs]; the viability, T/C (compound 0.003 µM) is 38.2% [middle of 8 runs]; the viability, T/C (compound 0.00949 µM) is 3.79% [middle of 8 runs]; the viability, T/C (compound 0.03 µM) is 3.16% [middle of 8 runs]; the viability, T/C (compound 0.0949 µM) is 2.66% [middle of 8 runs]; the viability, T/C (compound 0.3 µM) was 2.33% [middle of 8 runs]. Also, the 50% inhibitory concentration (IC50) (compound alone, run of 08/26/2024) was 2.05 nM [middle of 7 runs].
Regarding `CCn1c(-c2cccnc2C(C)OC)c2c3cc(ccc31)N1CCOC(CC(NC(=O)C(C(C)C)N(C)C(=O)C3(F)CCN(C(=O)C#CC(C)(C)N(C)C)CC3)C(=O)N3CCCC(N3)C(=O)OCC(C)(C)C2)C1` (stereo not drawn), the viability, T/C runs as follows: (compound 0.000949 µM) 110% [middle of 8 runs]; (compound 0.003 µM) 108% [middle of 8 runs]; (compound 0.00949 µM) 105% [middle of 8 runs]; (compound 0.03 µM) 106% [middle of 8 runs]; (compound 0.0949 µM) 98.7% [middle of 8 runs]; (compound 0.3 µM) 92.5% [middle of 8 runs]. Also, under “compound alone, run of 08/20/2024”, the half-inhibitory concentration (IC50) was more than 300 nM.
With `Nc1ccn(C2OC(CO)C(O)C2(F)F)c(=O)n1` (stereo not drawn), the viability, T/C reads like this: (compound 0.00316 µM) 103% (2×) and 77.4% and 105%; (compound 0.01 µM) 65.5% [middle of 4 runs]; (compound 0.0316 µM) 32.3% [middle of 4 runs]; (compound 0.1 µM) 19.3% [middle of 4 runs]; (compound 0.316 µM) 21% [middle of 4 runs]; (compound 1 µM) 22.2% [middle of 4 runs]. The half-inhibitory concentration (IC50) (curve of compound) is 17 nM and 10.3 nM and 16.8 nM.
On to `O=C(c1ccc(F)c(F)c1Nc1ccc(I)cc1F)N1CC(O)([C@@H]2CCCCN2)C1`, for which the viability, T/C by setting is: (compound 0.00316 µM) 74% [middle of 4 runs]; (compound 0.0316 µM) 6.94% [middle of 4 runs]; (compound 0.1 µM) 3.21% [middle of 4 runs]; (compound 0.316 µM) 1.96% [middle of 4 runs]; (compound 1 µM) 1.06% [middle of 4 runs]. In addition, the IC50 (curve of compound) was 7.85 nM [middle of 4 runs].
